Experimental data taken from PMC5293122, “Linalool, a Piper aduncum essential oil component, has selective activity against Trypanosoma cruzi trypomastigote forms at 4°C” (Memórias do Instituto Oswaldo Cruz, 2017).
Converted amounts (≈) assume the structure as drawn. “And” between values parts separate entries of the source, which are not always exact repeats. Equal entries are not always repeated. “Also recorded” adds a separate entry of the source. Where two headings read alike, the source gives them in different places. Values belong to the compound of their own block, whether it stands above or below them.

How the values were obtained:
[1] = test system: Trypanosoma cruzi cell-derived trypomastigotes; assay: Activity on cell-derived trypomastigotes at 4 °C, 24 h, MTT assay; type: cell-based, T. cruzi clone Dm28c; details: for Selectivity index (SI) - Vero cells: Table II, CC50 Vero cells / IC50 cell-derived trypomastigotes (4 °C); for IC50: Trypanosoma cruzi
Vero cells = assay: Cytotoxicity on Vero cells, MTT assay; type: cell-based; details: 1 µg/mL, 24 h; not shown
[2] = test system: Trypanosoma cruzi epimastigotes; assay: PaEO activity on epimastigotes at 28 °C, 24 h, MTT assay; type: cell-based, T. cruzi clone Dm28c
Protocol: (§1) Parasites - In this work, we used the T. cruzi clone Dm28c. Epimastigote forms were kept at 28 °C in LIT medium supplemented with 10% inactivated FCS, with passages at every three days. For the experiments, parasites obtained from 72-h cultures were used.
(§2) Single drug activity assays on T. cruzi developmental forms - All experiments were performed in biological and technical triplicates. Incubations were performed for 24 h in all bioassays. The absorbance of untreated cells in culture media containing 0.5% DMSO (control) was used as 100% cell viability, and the percentage of dead cells in each treatment was estimated by comparison with the untreated control.
(§3) For all assays, IC50/24 h values (based on cell counting, MTT data or infection index values) and dose-response curves were generated using the CompuSyn software (ComboSyn Inc., Paramus, NJ, USA), and statistical analysis was performed in Excel. For all assays, the fraction of affected cells (Fa) was calculated relative to the untreated control (treated/untreated ratio).
To test the activity of PaEO on epimastigote forms, these cells were seeded into 96-well plates (5 x 10^6 cells/well) in LIT medium, and treated for 24 h at 28 °C with PaEO at the final concentrations of 9, 18, 37, 75, 150 and 300 µg/mL. […] Cell viability was assessed by the MTT assay (see “MTT assay”). […]

[3] = test system: Trypanosoma cruzi metacyclic trypomastigotes; assay: PaEO activity on metacyclic trypomastigotes at 28 °C, 24 h, cell counting; type: cell-based, T. cruzi clone Dm28c
Protocol: as §1
To obtain metacyclic trypomastigotes, culture epimastigotes in late logarithmic growth phase (five days) were subjected to nutritional stress as described previously ([Contreras et al. 1985]). […]
as §2, with “Incubations were performed for 24 h in all bioassays.” left out
as §3, with “ratio). […]” for “ratio).”

Chagas disease = details: cited from earlier work; for Treatment efficacy: ref Rassi et al. 2009
[4] = test system: Trypanosoma cruzi cell-derived trypomastigotes; assay: PaEO activity on cell-derived trypomastigotes at 28 °C, 24 h, cell counting; type: cell-based, T. cruzi clone Dm28c
Protocol: To obtain cell-derived trypomastigotes, Vero cells were incubated with cell-derived trypomastigotes (1:10 ratio of cells to parasites) in 75 cm^2 culture flasks containing 8 mL DMEM. After 4 h of interaction, non-internalised parasites were removed by rinsing with phosphate-buffered saline (PBS), new medium was added, and then changed to fresh medium every 24 h. After 96 h of infection, trypomastigotes released into the supernatant were collected by centrifugation at 3000 g for 10 min.
PaEO activity assays with cell-derived trypomastigotes were performed at 28 °C and 4 °C. […]

[5] = test system: Trypanosoma cruzi intracellular amastigotes; assay: PaEO activity against intracellular amastigotes in Vero cells, 37 °C, 24 h, infection index; type: cell-based; details: for Amastigotes per cell / Infected cells (%): Vero cells; for Infection index (II): II = % infected cells x amastigotes per cell
Protocol: Vero cells - Vero cells (ATCC CCL-81) were grown in RPMI-1640 medium with L-glutamine (Sigma Aldrich, St. Louis, MO, USA), supplemented with 5% fetal calf serum (FCS; Cultilab, Campinas, SP, Brazil), at 37 °C, and in a humidified 5% CO2 atmosphere. For seeding, cell monolayers were washed twice with PBS (pH 7.2), trypsinized and collected by centrifugation at 100 g for 2 min.
as §1, §2, §3
To test PaEO activity against intracellular amastigotes, Vero cells were seeded in 24-well plates (2 x 10^4 cells/well) in DMEM (Sigma-Aldrich), and allowed to adhere for 24 h. Then, cell-derived trypomastigotes were added to each well (1:10 ratio of cells to parasites), incubated for 3 h, and non-internalised parasites were removed by washing with PBS. Infected cultures were incubated for 24 h (at 37 °C, 5% CO2), and then the culture medium was replaced with RPMI-1640 containing PaEO or BZ at final concentrations between 1 and 100 µg/mL (total volume of 1 mL/well), and plates were incubated for 24 h, at 37 °C (5% CO2). Treated cells were fixed with methanol, stained with Giemsa, and the inhibitory effect on intracellular amastigotes was estimated by counting (a) the number of infected cells, and (b) the number of amastigotes per cell, in 100 cells/wells, from random light microscopy images.

[6] = Cytotoxicity on Vero cells, MTT assay; type: cell-based; details: African green monkey, Vero cells (ATCC CCL-81), Vero cells
Protocol: MTT assay - After drug treatments, MTT solution (10 mg/mL in PBS) was added to each well for a final concentration of 2.5 mg/mL (or 1 mg/mL for trypomastigotes). Plates were incubated for 3 h at 28 °C in the dark, centrifuged for 10 min at 475 g and the supernatant was removed (by quick plate reversal). Then, 20 µL SDS was added to each well, followed by incubation for 1 h at 28 °C, after which 80 µL DMSO was added to each well and incubated for a further 1 h at 28 °C. Finally, the residual material was removed with the aid of a toothpick, and sample absorbance (at 550 nm) was read in an EL800 microplate reader (Biotek, Winooski, VT, USA). Dose-response curves were produced using the CompuSyn software, which was also used to calculate IC50/24 values.
Cytotoxicity - Vero cells were seeded in 96-well plates (2 x 10^4 cells/well) with RPMI-1640 medium and cultivated for 24 h at 37 °C (5% CO2). […] Then, plates were subjected to the MTT assay as described above (see “MTT assay”), and MTT data were used to calculate 50% cytotoxicity (CC50/24 h) values. Plates were examined in an inverted microscope every 12 h, to evaluate monolayer integrity (confluence and adhesion).

red blood cells (RBCs) = assay: Cytotoxicity on red blood cells at 4 °C; type: cell-based, human; details: CC50 RBCs (4 °C) / IC50 cell-derived trypomastigotes (4 °C)
Protocol: (§4) To analyse cytotoxicity on red blood cells (RBCs) at 4 °C, human erythrocytes were obtained from 10-mL blood samples (O+), from a healthy volunteer donor, as previously described ([Izumi et al. 2012]). After collection, blood was […] and then washed with a sterile ‘saline-glucose’ solution (0.85% NaCl/5% glucose). The final pellet was diluted in saline-glucose and centrifuged for 5 min at 1400 g. The supernatant was discarded and the pellet of RBCs was diluted in saline-glucose, for a final concentration of 6%. […] Negative control samples represented untreated RBCs diluted in saline-glucose. After treatment, plates were centrifuged at 1027 g for 2 min, and 100 µL of supernatant from each well were transferred to a new plate and analysed (at 550 nm) in an EL800 microplate reader (Biotek, Winooski, VT, USA). Cytotoxicity (CC50) values were calculated using Excel, and selectivity index (SI) values were calculated as the ratio between the CC50/24 h (for Vero cells or RBCs) and IC50/24 h values.

[7] = Cytotoxicity on red blood cells at 4 °C; type: cell-based, human; details: red blood cells (erythrocytes); human RBCs, 4 °C
Protocol: as §4

[8] = test system: T. cruzi blood trypomastigotes (Y strain); design: method as in Santoro et al. 2007b; details: ref Santoro et al. 2007b; cited from earlier work
[9] = Trypanosoma cruzi, 24 h, read-out: IC50/24 h
[10] = 37 °C, read-out: Vero cells CC50/24 h

SMILES: C=CC(C)(O)CCC=C(C)CCC=C(C)C (mixture of isomers) [nerolidol]
Trypanocidal activity (light microscopy and MTT) ([1]; 100 ng/mL to 1 µg/mL, 4 °C, 24 h, data not shown): no appreciable trypanocidal activity; also recorded: failed to affect significantly | Integrity of Vero cell monolayers (Vero cells): did not affect the integrity; also recorded: remained intact

SMILES: O=C(Cn1ccnc1[N+](=O)[O-])NCc1ccccc1 [BZ, Benznidazole]
Selectivity index (SI) ([2]; CC50 on Vero cells / IC50, epimastigotes 28 °C): 69.4 | IC50 [2, 9]: 45 µM and 14.7 µg/mL | Selectivity index (SI) ([3]; CC50 on Vero cells / IC50, metacyclic trypomastigotes 28 °C): 3,646.4 | IC50 [3, 9]: 0.3 µg/mL (≈ 1.15 µM) | Treatment efficacy (Chagas disease; acute phase of the disease): approximately 80% | Treatment efficacy (Chagas disease; chronic phase of the disease): ~20% | Treatment discontinuation due to side effects (Chagas disease; ref Bern 2011): 7-13 % of cases | Selectivity index (SI) ([4]; CC50 on Vero cells / IC50, cell-derived trypomastigotes 28 °C): 63.4 | IC50 [4, 9]: 16.1 µg/mL (≈ 61.9 µM) | II decrease ([5]; 10 µg/mL, 24 h): 81.3% | Amastigotes per cell ([5]; 10 µg/mL, 24 h): 2.5 | Infected cells (%) ([5]; 10 µg/mL, 24 h): 74.9% | Infection index (II) ([5]; 10 µg/mL, 24 h): 187.2 | II decrease ([5]; 50 µg/mL, 24 h): 99.9% | Amastigotes per cell ([5]; 50 µg/mL, 24 h): 0.9 | Infected cells (%) ([5]; 50 µg/mL, 24 h): 0.4% | Infection index (II) ([5]; 50 µg/mL, 24 h): 0.3 | Selectivity index (SI) ([5]; CC50 on Vero cells / IC50, amastigotes 37 °C): 1,276.2 | IC50 ([5]; Trypanosoma cruzi, Vero, 24 h, read-out: IC50/24 h): 0.8 µg/mL (≈ 3.07 µM) | CC50 at 24 h [6, 10]: > 1000 µg/mL

SMILES: CN(C)c1ccc(C(=C2C=CC(=[N+](C)C)C=C2)c2ccc(N(C)C)cc2)cc1 [Gentian Violet, gentian violet]
Selectivity index (SI) - RBCs (red blood cells (RBCs)): > 2.8 | Selectivity index (SI) - Vero cells [1]: 2.9

IC50 ([1]; cell-derived trypomastigotes, 4 °C, 24 h, read-out: IC50/24 h): 0.306 µg/mL (≈ 1.98 µM) | IC50 ([1]; cell-derived trypomastigotes, 4 °C, 24 h, read-out: T. cruzi IC50/24 h): 0.31 µg/mL (≈ 2.01 µM)
SMILES: C=CC(C)(O)CCC=C(C)C (centres unmarked) [Linalool, linalool]
CC50 at 24 h [7]: 7340 µg/mL (≈ 47600 µM) | Selectivity index (SI) - RBCs (red blood cells (RBCs)): 23,990 | Selectivity index (SI) - Vero cells [1]: 2.7 | Selectivity index (SI) - Vero cells ([1]; listed as linalool): 2.69 | Times more efficient than gentian violet ([1]; cell-derived trypomastigotes, 4 °C): approximately 80,000 times | Times more effective than BZ at 28ºC ([1]; linalool at 4 °C vs BZ at 28 °C, cell-derived trypomastigotes): approximately 52 times | IC50/24 h [8]: 264 µg/mL (≈ 1710 µM) | CC50 at 24 h [6, 10]: 0.87 µg/mL (≈ 5.64 µM) | CC50 at 24 h ([6]; b44 prints at 4 °C, read-out: CC50/24 h): 0.824 µg/mL (≈ 5.34 µM)
